Assays:
Settings in all cases: 72 h
U2OS [1] = assay: GR50 (concentration giving GR = 0.5)
Description: (§1)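 U2OS cells treated with full dose titrations of drug; live and dead cells counted by STACK microscopy (mKate2 nuclei, SYTOX Green) at 72 h, biological triplicates. GR and FV dose responses were fitted with 4-parameter logistic models (GR lower bound -1). GRADE (0-100) is the rescaled angle of a linear fit of FV versus GR at doses with GR >= 0, giving the percentage of the response due to cell death.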

U2OS [2] = assay: fractional viability (live cells / total cells); higher = less cell death
Description: (§2)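 U2OS::Nuc-mKate2 cells seeded in 96-well plates and treated with eight- to ten-point half-log or log dilutions of drug in the presence of 50 nM SYTOX Green. Live (mKate2+) and dead (SYTOX+) cells were counted by IncuCyte STACK live-cell microscopy at 72 h; biological triplicates. GR is the normalised growth-rate inhibition value (Hafner 2016; 1 = untreated growth, <0 = population shrinking). FV is live/(live+dead) cells, not normalised.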

U2OS [3] = assay: FV IC50 (concentration giving fractional viability 0.5); higher = less potent killing
Description: as §1

U2OS [4] = assay: drug GRADE (percent of response due to cell death) (% (0-100)); higher = more death-driven response
Description: as §1

U2OS [5] = assay: GRmin (fitted minimal GR value at highest effect) (GR value (dimensionless)); higher = less efficacious
Description: as §1

U2OS [6] = assay: normalized growth rate inhibition value (GR) relative to untreated cells (GR value (dimensionless, 1 = untreated growth)); higher = less growth inhibition
Description: as §2

## Nc1ccccc1NC(=O)c1ccc(CNC(=O)OCc2cccnc2)cc1 [Entinostat]
U2OS [1]
  GR50: 2.84 µM
U2OS [2]; 0.01 µM
  fractional viability: 0.979
U2OS [2]; 0.0316 µM
  fractional viability: 0.97
U2OS [2]; 0.1 µM
  fractional viability: 0.973
U2OS [2]; 0.316 µM
  fractional viability: 0.964
U2OS [2]; 1 µM
  fractional viability: 0.933
U2OS [2]; 3.16 µM
  fractional viability: 0.814
U2OS [2]; 10 µM
  fractional viability: 0.201
U2OS [2]; 31.6 µM
  fractional viability: 0.0216
U2OS [3]
  FV IC50: 5.8 µM
U2OS [4]
  drug GRADE: 42.5
U2OS [5]
  GRmin: -0.906
U2OS [6]; 0.01 µM
  normalized growth rate inhibition value: 0.972
U2OS [6]; 0.0316 µM
  normalized growth rate inhibition value: 0.969
U2OS [6]; 0.1 µM
  normalized growth rate inhibition value: 0.929
U2OS [6]; 0.316 µM
  normalized growth rate inhibition value: 0.883
U2OS [6]; 1 µM
  normalized growth rate inhibition value: 0.741
U2OS [6]; 3.16 µM
  normalized growth rate inhibition value: 0.504
U2OS [6]; 10 µM
  normalized growth rate inhibition value: -0.304
U2OS [6]; 31.6 µM
  normalized growth rate inhibition value: -0.726

## CC(C)Oc1ccc(-c2ccccc2)cc1-n1c(CN2CCN(C(=O)COc3ccc(Cl)cc3)CC2)nc2ccccc2c1=O [Erastin 2]
U2OS [1]
  GR50: 0.231 µM
U2OS [2]; 0.01 µM
  fractional viability: 0.97
U2OS [2]; 0.0316 µM
  fractional viability: 0.973
U2OS [2]; 0.1 µM
  fractional viability: 0.952
U2OS [2]; 0.316 µM
  fractional viability: 0.886
U2OS [2]; 1 µM
  fractional viability: 0.233
U2OS [2]; 3.16 µM
  fractional viability: 0.0768
U2OS [2]; 10 µM
  fractional viability: 0.0609
U2OS [2]; 31.6 µM
  fractional viability: 0.0186
U2OS [3]
  FV IC50: 0.659 µM
U2OS [4]
  drug GRADE: 24.1
U2OS [5]
  GRmin: -0.774
U2OS [6]; 0.01 µM
  normalized growth rate inhibition value: 0.949
U2OS [6]; 0.0316 µM
  normalized growth rate inhibition value: 0.863
U2OS [6]; 0.1 µM
  normalized growth rate inhibition value: 0.703
U2OS [6]; 0.316 µM
  normalized growth rate inhibition value: 0.419
U2OS [6]; 1 µM
  normalized growth rate inhibition value: -0.133
U2OS [6]; 3.16 µM
  normalized growth rate inhibition value: -0.515
U2OS [6]; 10 µM
  normalized growth rate inhibition value: -0.627
U2OS [6]; 31.6 µM
  normalized growth rate inhibition value: -0.776

## CC(C)n1nc(-c2ccc3oc(N)nc3c2)c2c(N)ncnc21 [INK-128]
U2OS [1]
  GR50: 0.0318 µM
U2OS [2]; 0.000318058 µM
  fractional viability: 0.987
U2OS [2]; 0.00100506 µM
  fractional viability: 0.989
U2OS [2]; 0.003176 µM
  fractional viability: 0.989
U2OS [2]; 0.0100362 µM
  fractional viability: 0.987
U2OS [2]; 0.0317143 µM
  fractional viability: 0.982
U2OS [2]; 0.100217 µM
  fractional viability: 0.965
U2OS [2]; 0.316686 µM
  fractional viability: 0.95
U2OS [2]; 1.00073 µM
  fractional viability: 0.915
U2OS [2]; 3.1623 µM
  fractional viability: 0.855
U2OS [4]
  drug GRADE: 10.9
U2OS [5]
  GRmin: 0.0247
U2OS [6]; 0.000318058 µM
  normalized growth rate inhibition value: 0.831
U2OS [6]; 0.00100506 µM
  normalized growth rate inhibition value: 0.849
U2OS [6]; 0.003176 µM
  normalized growth rate inhibition value: 0.896
U2OS [6]; 0.0100362 µM
  normalized growth rate inhibition value: 0.726
U2OS [6]; 0.0317143 µM
  normalized growth rate inhibition value: 0.484
U2OS [6]; 0.100217 µM
  normalized growth rate inhibition value: 0.226
U2OS [6]; 0.316686 µM
  normalized growth rate inhibition value: 0.223
U2OS [6]; 1.00073 µM
  normalized growth rate inhibition value: 0.0973
U2OS [6]; 3.1623 µM
  normalized growth rate inhibition value: -0.0193

## CCOc1cc2ncc(C#N)c(Nc3ccc(OCc4ccccn4)c(Cl)c3)c2cc1NC(=O)/C=C/CN(C)C [Neratinib]
U2OS [1]
  GR50: 0.346 µM
U2OS [2]; 0.000317827 µM
  fractional viability: 0.985
U2OS [2]; 0.00100433 µM
  fractional viability: 0.987
U2OS [2]; 0.00317369 µM
  fractional viability: 0.985
U2OS [2]; 0.0100289 µM
  fractional viability: 0.986
U2OS [2]; 0.0316912 µM
  fractional viability: 0.984
U2OS [2]; 0.100144 µM
  fractional viability: 0.968
U2OS [2]; 0.316456 µM
  fractional viability: 0.933
U2OS [2]; 1 µM
  fractional viability: 0.879
U2OS [2]; 3.16 µM
  fractional viability: 0.189
U2OS [3]
  FV IC50: 1.97 µM
U2OS [4]
  drug GRADE: 20
U2OS [6]; 0.000317827 µM
  normalized growth rate inhibition value: 0.803
U2OS [6]; 0.00100433 µM
  normalized growth rate inhibition value: 0.812
U2OS [6]; 0.00317369 µM
  normalized growth rate inhibition value: 0.867
U2OS [6]; 0.0100289 µM
  normalized growth rate inhibition value: 0.776
U2OS [6]; 0.0316912 µM
  normalized growth rate inhibition value: 0.727
U2OS [6]; 0.100144 µM
  normalized growth rate inhibition value: 0.638
U2OS [6]; 0.316456 µM
  normalized growth rate inhibition value: 0.457
U2OS [6]; 1 µM
  normalized growth rate inhibition value: 0.255
U2OS [6]; 3.16 µM
  normalized growth rate inhibition value: -0.534

## CO[C@@H]1C[C@@H](C[C@H]2CC[C@H](C)[C@H]([C@@H](C)C(=O)O)O2)O[C@]2(O[C@](C)([C@H]3CC[C@@](C)([C@@H]4O[C@@H]([C@H]5O[C@@](O)(CO)[C@H](C)C[C@@H]5C)C[C@@H]4C)O3)C[C@H]2C)[C@@H]1C [Nigericin]
U2OS [1]
  GR50: 0.436 µM
U2OS [2]; 0.01 µM
  fractional viability: 0.963
U2OS [2]; 0.0316 µM
  fractional viability: 0.957
U2OS [2]; 0.1 µM
  fractional viability: 0.903
U2OS [2]; 0.316 µM
  fractional viability: 0.829
U2OS [2]; 1 µM
  fractional viability: 0.625
U2OS [2]; 3.16 µM
  fractional viability: 0.661
U2OS [2]; 10 µM
  fractional viability: 0.685
U2OS [2]; 31.6 µM
  fractional viability: 0.449
U2OS [4]
  drug GRADE: 57.3
U2OS [5]
  GRmin: -0.311
U2OS [6]; 0.01 µM
  normalized growth rate inhibition value: 0.857
U2OS [6]; 0.0316 µM
  normalized growth rate inhibition value: 0.78
U2OS [6]; 0.1 µM
  normalized growth rate inhibition value: 0.777
U2OS [6]; 0.316 µM
  normalized growth rate inhibition value: 0.484
U2OS [6]; 1 µM
  normalized growth rate inhibition value: 0.277
U2OS [6]; 3.16 µM
  normalized growth rate inhibition value: 0.287
U2OS [6]; 10 µM
  normalized growth rate inhibition value: 0.155
U2OS [6]; 31.6 µM
  normalized growth rate inhibition value: -0.106

## Cc1cn(-c2cc(NC(=O)c3ccc(C)c(Nc4nccc(-c5cccnc5)n4)c3)cc(C(F)(F)F)c2)cn1 [Nilotinib]
U2OS [1]
  GR50: 3.89 µM
U2OS [2]; 0.01 µM
  fractional viability: 0.984
U2OS [2]; 0.0316 µM
  fractional viability: 0.986
U2OS [2]; 0.1 µM
  fractional viability: 0.98
U2OS [2]; 0.316 µM
  fractional viability: 0.98
U2OS [2]; 1 µM
  fractional viability: 0.972
U2OS [2]; 3.16 µM
  fractional viability: 0.92
U2OS [2]; 10 µM
  fractional viability: 0.53
U2OS [2]; 31.6 µM
  fractional viability: 0.00617
U2OS [3]
  FV IC50: 10.3 µM
U2OS [4]
  drug GRADE: 27.4
U2OS [6]; 0.01 µM
  normalized growth rate inhibition value: 1.07
U2OS [6]; 0.0316 µM
  normalized growth rate inhibition value: 1.11
U2OS [6]; 0.1 µM
  normalized growth rate inhibition value: 0.977
U2OS [6]; 0.316 µM
  normalized growth rate inhibition value: 0.928
U2OS [6]; 1 µM
  normalized growth rate inhibition value: 0.955
U2OS [6]; 3.16 µM
  normalized growth rate inhibition value: 0.585
U2OS [6]; 10 µM
  normalized growth rate inhibition value: -0.184
U2OS [6]; 31.6 µM
  normalized growth rate inhibition value: -0.875

## CC(=O)c1c(C)c2cnc(Nc3ccc(N4CCNCC4)cn3)nc2n(C2CCCC2)c1=O [Palbociclib]
U2OS [1]
  GR50: 1.15 µM
U2OS [2]; 0.000317827 µM
  fractional viability: 0.992
U2OS [2]; 0.00100433 µM
  fractional viability: 0.992
U2OS [2]; 0.00317369 µM
  fractional viability: 0.99
U2OS [2]; 0.0100289 µM
  fractional viability: 0.989
U2OS [2]; 0.0316912 µM
  fractional viability: 0.989
U2OS [2]; 0.100144 µM
  fractional viability: 0.984
U2OS [2]; 0.316456 µM
  fractional viability: 0.988
U2OS [2]; 1 µM
  fractional viability: 0.987
U2OS [2]; 3.16 µM
  fractional viability: 0.972
U2OS [4]
  drug GRADE: 3.13
U2OS [5]
  GRmin: 0.176
U2OS [6]; 0.000317827 µM
  normalized growth rate inhibition value: 1.08
U2OS [6]; 0.00100433 µM
  normalized growth rate inhibition value: 0.975
U2OS [6]; 0.00317369 µM
  normalized growth rate inhibition value: 0.904
U2OS [6]; 0.0100289 µM
  normalized growth rate inhibition value: 0.841
U2OS [6]; 0.0316912 µM
  normalized growth rate inhibition value: 0.721
U2OS [6]; 0.100144 µM
  normalized growth rate inhibition value: 0.769
U2OS [6]; 0.316456 µM
  normalized growth rate inhibition value: 0.639
U2OS [6]; 1 µM
  normalized growth rate inhibition value: 0.525
U2OS [6]; 3.16 µM
  normalized growth rate inhibition value: 0.398

## Cc1ccc(Nc2nccc(N(C)c3ccc4c(C)n(C)nc4c3)n2)cc1S(N)(=O)=O [Pazopanib]
U2OS [1]
  GR50: 19.9 µM
U2OS [2]; 0.01 µM
  fractional viability: 0.98
U2OS [2]; 0.0316 µM
  fractional viability: 0.986
U2OS [2]; 0.1 µM
  fractional viability: 0.98
U2OS [2]; 0.316 µM
  fractional viability: 0.978
U2OS [2]; 1 µM
  fractional viability: 0.979
U2OS [2]; 3.16 µM
  fractional viability: 0.978
U2OS [2]; 10 µM
  fractional viability: 0.917
U2OS [2]; 31.6 µM
  fractional viability: 0.763
U2OS [4]
  drug GRADE: 47.8
U2OS [5]
  GRmin: 0.369
U2OS [6]; 0.01 µM
  normalized growth rate inhibition value: 0.995
U2OS [6]; 0.0316 µM
  normalized growth rate inhibition value: 1.04
U2OS [6]; 0.1 µM
  normalized growth rate inhibition value: 1.07
U2OS [6]; 0.316 µM
  normalized growth rate inhibition value: 1
U2OS [6]; 1 µM
  normalized growth rate inhibition value: 1.04
U2OS [6]; 3.16 µM
  normalized growth rate inhibition value: 0.915
U2OS [6]; 10 µM
  normalized growth rate inhibition value: 0.68
U2OS [6]; 31.6 µM
  normalized growth rate inhibition value: 0.431
